Results taken from patent publication US8097650B2, “Method of treating a condition associated with phosphorylation of TASK-1” (The Trustees of Columbia University In The City of New York, priority 2005, dated 2012).

Tested on: murine TASK-1 T381A mutant
Assay: T381A mutant TASK-1 current in CHO cells
Assay type: cell-based, mouse
Settings: +30 mV, C-PAF 185 nM
Protocol: pCMV-TASK1 (cTBAK) consists of a 1.9 kb sequence of murine TASK-1 inserted in pcDNA3.1 (a kind gift of Dr. Yoshihisa Kurachi, University of Osaka, Japan) and has been previously described (Leonoudakis D et al. (1998) J Neurosci 18: 868-877). pEGFP-C1 and pIRES-EGFP were purchased from Clontech. pTIE (TASK1-IRES-EGFP) was constructed by inserting a 1.9 kb EcoR1 fragment from pCMV-TASK1 into EcoR1 digested pIRES-EGFP. Site-directed mutagenesis was performed on pTIE using the Quik-Change kit (Stratagene) following the manufacturer's instructions. […]
Cells were either co-transfected with pCMV-TASK1 together with pEGFP-C1 (1 μg total, 3:1) or transfected with […] or T381A-pTIE (1 μg). 48 h after the transfection the cells were checked under the microscope for green fluorescence. […]
The myocyte suspension or the coverslip with CHO cells was placed into a perfusion chamber, mounted on the stage of an inverted microscope. […] Membrane potential and current were measured in the whole cell configuration using borosilicate glass pipettes with a tip resistance between […] and filled with a pipette solution containing (mM): aspartic acid, 130; KOH, 146; NaCl, 10; CaCl2, 2; EGTA, 5; HEPES, 10; MGATP, 2; pH 7.2. […] Myocytes treated with the peptides were monitored continuously beginning immediately after rupture to detect the occurrence of any arrhythmias during dialysis of the peptide. […]

CCCCCCCCCCCCCCCCOC[C@H](COP(=O)([O-])OCC[N+](C)(C)C)OC(=O)NC [C-PAF, carbamyl-platelet-activating factor]
maximal current in the presence of C-PAF: 44.2±7 pA/pF
